Test results from patent US5240912A, “Transforming growth factor (TGF) peptides” (priority 1991, dated 1993).
Where two headings read alike, the source gives them in different places. Positions of bridges follow the written chain, without caps; N, C: chain ends. Residues, ends and D or L forms follow the SMILES beside them. No end group written: not given here.

Tests used:
[1] = system: BSC-1 cells infected with vaccinia virus; type: cell-based, Cercopithecus monkey; conditions: AraC from after the 1 hr adsorption period; 13 and 24 hr post infection
[2] = target: T1, EGF receptors on A-431 human epidermoid carcinoma cells (Homo sapiens, UniProt P00533); assay: [125I]EGF radioreceptor assay on A-431 cells; type: binding
T1 construct: Human epidermoid carcinoma A431 cells have in excess of 10^6 EGF receptors per cell; endogenous in cells; host or cells: A431 human epidermoid carcinoma cells
Experimental: A-431 human epidermoid carcinoma cells or human foreskin fibroblasts (HFF), established from primary cultures, were grown to confluence in 24-well cluster dishes (Costar) in Dulbecco's minimal essential medium (DMEM, Gibco) containing 10% fetal calf serum (FCS, Hyclone). EGF was radio-iodinated as above to between 4×10^4 and 8×10^4 cpm/ng protein. Cells were incubated at 4° C. for 60 minutes with 1 nM [^125 I]EGF in the presence of inhibitor peptides in DMEM (pH 7.4; 20 mM Hepes) containing 0.1% BSA. Cells were washed 3× with cold buffer, lysed with 0.1N NaOH, and cell-associated radioactivity was measured (γ-counter). Nonspecific binding assessed in the presence of a 100x excess of cold EGF was less than 5% and 10% of the specific binding for A-431 and HFF cells, respectively.

quiescent HFF = assay: Cell proliferation assay, [3H]methyl-thymidine incorporation; type: cell-based, human
Experimental: HFF cells were grown to confluence in 48-well cluster dishes in DMEM-10% FCS and brought to quiescence by starvation for 2 days in DMEM-0.5% FCS. Mitogens and peptides were incubated with cells at 37° C. for 18 hours prior to a 4 hour pulse with 1 μCi [^3 H]methyl-thymidine (NEN) and trichloroacetic acid precipitable radioactivity was determined.

anti-KLH-peptide 1 IgG = assay: Solid phase RIA, anti-KLH-peptide 1 IgG on BSA-peptide 1 conjugate; type: binding, rabbit
Experimental: (1979) J. Immunol. Methods 28, pp. 201-206). Carrier-peptide complexes were purified by gel filtration. […] Rabbits were boosted s.c. every two weeks with the immunogen in incomplete Freund's adjuvant. The IgG fraction of the antiserum after 5 boosts was used for immunoassays and radiolabeled using Na^125 I (NEN) and Enzymobeads (Bio-Rad) to 4×10^5 cpm/μg protein. […] Plates were incubated for 4 hours at 37° C. with [^125 I]anti-KLH-peptide 1 IgG (50,000 cpm/well) in the presence or absence of inhibitors, washed and individual wells were counted.

[3] = system: antiserum directed against peptide III; assay: Competitive radioimmunoassay with 125I-peptide III; type: binding, rabbit; conditions: for Relative Inhibitory Activity: half-maximal inhibitory concentration relative to peptide III, standard RIA; for effectiveness as inhibitor of precipitation of 125I-peptide III: relative to peptide III
Experimental: Reactants were mixed in a final volume of 50 microliters of a solution containing: 20 mM sodium phosphate, at pH 7.4; 200 mM NaCl; 40 mM dithiothreitol; 0.1% (w:v) BSA; 0.1% (w:v) NaN3; ^125 I-peptide III; (10^4 cpm); antiserum at a final dilution of 1/15,000; and other additions, as specified. The reaction was initiated by the addition of antiserum and continued at 23° C. for 90 minutes. An equal volume of 10% formalin-fixed Staphalococcus A (Pansorbin, Calbiochem) was then added and incubation was continued for an additional 30 minutes at 23° C. The immunoadsorbant was removed by sedimentation through a cushion of 10% (w:v) sucrose and the amount of bound ^125 I-peptide III was determined using a gamma counter.

[4] = target: T2, EGF receptors on A431 cells (Homo sapiens, UniProt P00533); assay: Binding of 125I-labeled rat TGF to A431 cells
T2 construct: Human epidermoid carcinoma A431 cells have in excess of 10^6 EGF receptors per cell; endogenous in cells; host or cells: A431 human epidermoid carcinoma cells
Experimental: was synthesized using the solid-phase technique of Ohgak et al. (1983) Journal of Immunol. Meth. 57, pp. 171-184. This oligopeptide was then coupled to keyhole limpet hemocyanin in accordance with the procedure of Baron et al. (1982) Cell 28, pp. 395-404, and used to immunize rabbits (Baron et al. (1982) Cell 28, pp. 395-404) and sheep (Lerner (1982) Nature 299, pp. 592-596). Antisera were assayed against peptide by a peroxidase-linked immunoassay (Kirkegaard and Perry Laboratories, Gaithersberg, Md.) and against homogeneous rat TGF (purified according to Example II above), by immunoprecipitation (Bister et al. (1980) J. Virol. 36, pp. 617-621) and Western blotting techniques (Burnett (1981) Analyt. Biochem. 112, pp. 195-203). Binding of ^125 I-labeled rat TGF and mouse EGF (Bethesda Research Labs, Bethesda, Md.) to A431 cells grown in 96-well microtiter plates was as described in Pross et al. (1977) Proc. Natl. Acad. Sci. USA 74, pp. 3918-3921.
Human epidermoid carcinoma A431 cells have in excess of 10^6 EGF receptors per cell (Fabricant et al. (1977) Proc. Natl. Acad. Sci. USA 74, pp. 565-569). TGF competes with EGF for binding to these receptors. Binding of ^125 I-labeled rat TGF to these cells was blocked by an excess of unlabeled EGF and by antiserum to peptide. […]

Nc1ccn([C@@H]2O[C@H](CO)[C@@H](O)[C@@H]2O)c(=O)n1 [AraC, cytosine arabinoside]
VGF production relative to infected control cultures [1]: enhanced more than two-fold

CC(C)[C@@H]1NC(=O)CNC(=O)[C@H](C(C)C)NC(=O)[C@H](Cc2ccc(O)cc2)NC(=O)CNC(=O)[C@H](CO)NC(=O)[C@H](Cc2c[nH]cn2)NC(=O)[C@@H](N)CSSC[C@@H](C(=O)O)NC(=O)[C@H](CCCNC(=N)N)NC1=O [Peptide 1] (H-CHSGYVGVRC-OH; disulfide 1-10)
concentration giving partial inhibition of [125I]EGF binding [2]: > 10^-6 M | IC50 (quiescent HFF; induced by 1 nM of EGF, read-out: Inhibition of Mitogenesis IC50 (M) EGF): > 1e-05 M | IC50 (quiescent HFF; induced by 1 nM of TGFα, read-out: Inhibition of Mitogenesis IC50 (M) TGFα): > 1e-05 M | inhibition of reaction of anti-KLH-peptide 1 antibodies with BSA-TGF peptide (anti-KLH-peptide 1 IgG): inhibited in a concentration-dependent fashion

CC(=O)N[C@H]1CSSC[C@@H](C(N)=O)NC(=O)[C@H](CCCNC(=N)N)NC(=O)[C@H](C(C)C)NC(=O)CNC(=O)[C@H](C(C)C)NC(=O)[C@H](Cc2ccc(O)cc2)NC(=O)CNC(=O)[C@H](CO)NC(=O)[C@H](Cc2c[nH]cn2)NC1=O [Peptide 2] (Ac-CHSGYVGVRC-NH2; disulfide 1-10)
binding potency relative to EGF or TGF-α [2]: approximately 0.02%

Ac-Cys-His-Ser-Gly-Tyr-Val-Gly-Ala-Arg-Cys-OMe (Ac-CHSGYVGARC-OMe; disulfide 1-10 (inferred)) [Peptide 3, methyl ester of the corresponding loop of hTGF]
binding potency relative to EGF or TGF-α [2]: ~0.2%

CHSGYVGVRC (cysteine pairing not given here) [Peptide II]
Relative Inhibitory Activity [3]: > 1500

CHSGYVGVRCEHADLLA (cysteine pairing not given here) [Peptide III]
Relative Inhibitory Activity [3]: 1 | IC50 ([3]; read-out: concentration producing half-maximal inhibition of precipitation of 125I-peptide III): 0.7 nM

EGF: mouse submaxillary gland epidermal growth factor [reference compound]
highest concentration without competition in RIA [3]: greater than 1 μM | Relative Inhibitory Activity [3]: > 1500 | inhibition of reaction of anti-KLH-peptide 1 antibodies with BSA-TGF peptide (anti-KLH-peptide 1 IgG): did not cause significant inhibition | blocking of 125I-labeled rat TGF binding to A431 cells [4]: blocked

VGVRCEHADLLA [Peptide IV]
Relative Inhibitory Activity [3]: 3.5 | effectiveness as inhibitor of precipitation of 125I-peptide III [3]: only slightly less effective

VVSHFNKCPDSHT [Peptide I]
Relative Inhibitory Activity [3]: > 1500 | effectiveness as inhibitor of precipitation of 125I-peptide III [3]: ineffective
